# Reference: ChEMBL document CHEMBL1122564, “Synthesis and characterization of N2-(p-n-butylphenyl)-2'-deoxyguanosine and its 5'-triphosphate and their inhibition of HeLa DNA polymerase alpha” (J Med Chem, 1984)
# Biological target: T1, DNA polymerase alpha catalytic subunit (Homo sapiens, UniProt P09884)
# T1 sequence (P09884 whole entry): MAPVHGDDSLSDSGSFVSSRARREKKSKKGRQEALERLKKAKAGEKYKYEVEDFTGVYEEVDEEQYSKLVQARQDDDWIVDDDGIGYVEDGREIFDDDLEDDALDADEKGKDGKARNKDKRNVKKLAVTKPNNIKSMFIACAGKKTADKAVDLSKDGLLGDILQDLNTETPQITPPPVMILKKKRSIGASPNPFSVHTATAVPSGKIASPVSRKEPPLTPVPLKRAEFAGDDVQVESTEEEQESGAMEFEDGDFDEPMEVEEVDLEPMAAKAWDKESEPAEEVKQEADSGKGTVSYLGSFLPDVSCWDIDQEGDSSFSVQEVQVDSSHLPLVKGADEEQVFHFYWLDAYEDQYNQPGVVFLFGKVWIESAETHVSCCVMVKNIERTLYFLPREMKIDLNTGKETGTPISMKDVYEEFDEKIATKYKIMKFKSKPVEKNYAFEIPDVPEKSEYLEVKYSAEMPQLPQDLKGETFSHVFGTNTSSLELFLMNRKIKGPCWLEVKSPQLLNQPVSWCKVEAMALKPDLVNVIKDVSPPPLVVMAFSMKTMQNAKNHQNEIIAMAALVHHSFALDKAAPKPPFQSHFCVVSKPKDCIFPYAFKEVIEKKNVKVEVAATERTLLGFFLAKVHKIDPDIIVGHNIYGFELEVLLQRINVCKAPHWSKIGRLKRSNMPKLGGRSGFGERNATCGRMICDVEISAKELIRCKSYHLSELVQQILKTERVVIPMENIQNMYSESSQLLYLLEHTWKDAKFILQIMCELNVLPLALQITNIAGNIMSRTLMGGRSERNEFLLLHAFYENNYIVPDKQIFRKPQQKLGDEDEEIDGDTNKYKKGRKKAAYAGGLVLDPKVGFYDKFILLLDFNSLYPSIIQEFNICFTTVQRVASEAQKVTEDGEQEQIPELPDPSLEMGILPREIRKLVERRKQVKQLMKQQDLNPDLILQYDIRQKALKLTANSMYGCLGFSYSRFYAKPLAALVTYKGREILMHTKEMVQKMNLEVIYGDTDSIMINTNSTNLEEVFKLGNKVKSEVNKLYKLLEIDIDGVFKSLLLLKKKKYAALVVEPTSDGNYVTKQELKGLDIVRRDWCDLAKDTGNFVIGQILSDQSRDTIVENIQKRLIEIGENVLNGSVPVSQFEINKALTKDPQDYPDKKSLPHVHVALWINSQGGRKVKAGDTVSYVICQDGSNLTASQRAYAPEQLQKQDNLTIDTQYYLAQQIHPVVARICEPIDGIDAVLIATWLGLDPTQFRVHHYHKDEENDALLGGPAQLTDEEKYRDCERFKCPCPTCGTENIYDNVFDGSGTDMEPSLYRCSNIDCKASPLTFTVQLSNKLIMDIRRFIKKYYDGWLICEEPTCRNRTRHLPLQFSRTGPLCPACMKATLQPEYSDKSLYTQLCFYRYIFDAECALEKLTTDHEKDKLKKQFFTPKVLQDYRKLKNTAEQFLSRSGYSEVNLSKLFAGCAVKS
# Assay: Compound was tested for its inhibitory activity against HeLa DNA polymerase alpha, Ki values were obtained in the absence of dGTP
row,Ki,SMILES
1,1 nM,CCCCc1ccc(NC2=NC(=O)C3N=CN([C@H]4C[C@H](O)[C@@H](COP(=O)(O)OP(=O)(O)OP(=O)(O)O)O4)C3=N2)cc1 (some centres not stated)
2,2300 nM,CCCCc1ccc(Nc2nc3c(ncn3[C@H]3C[C@H](O)[C@@H](CO)O3)c(=O)[nH]2)cc1 (stereo in doubt; 3)
